Reference: patent US8614236B2 (University of Washington, priority 2006, dated 2013)
Entries after “also recorded” stand apart in the source; their conditions may differ.

Key:
Format in all cases: in vivo
Beagle dogs [1] = test: Dog study: pulmonary and systemic hemodynamics, hypoxic pulmonary vasoconstriction; details: for MPAP and PVR during hypoxia (words): iv bolus + continuous infusion (AZ, benzolamide 2 mg/kg + 2 mg/kg/h; ethoxzolamide 1 mg/kg + 1 mg/kg/h)
Protocol: (§1) A total of 30 experiments were performed on six female Beagle dogs (body wt 14.3±0.3 kg). The dogs were kept under highly standardized conditions and received a standardized diet five days before the experiments. The preparation and catheterization of the conscious dog were performed according to former experiments as in Höhne C., et al., J Appl Physiol (2004), which is hereby incorporated by reference in its entirety. To permit spontaneous breathing through a low resistance circuit, a face mask was attached, which enclosed the dog's snout in a leak proof fashion. This custom made mask is equipped with a 2.5 cm ID connector to connect it to a ventilator set to CPAP mode (3 4 cmH20) (Servo900C; Siemens-Elema, Erlangen/Germany).
(§2) Six dogs were studied in five different protocols in randomized order:
(§3) 4) Benzolamide intravenously: Bolus (2 mg/kg), followed by a continuous infusion of 2 mg·kg^−1·h^−1, a dosage which inhibits only renal and vascular endothelial extracellular CA, without affecting red cell CA as in Travis D. M., et al. J Pharmacol Exp Ther (1964), which is hereby incorporated by reference in its entirety. 5) Ethoxzolamide (Sigma-Aldrich, Steinheim/Germany) intravenously: Bolus ethoxzolamide (1 mg/kg), followed by a continuous infusion of 1 mg·kg^−1·h^−1.
(§4) In control experiments, the dogs breathed room air (21% O2, 79% N2; normoxia) for one hour, followed by breathing a gas mixture containing 10% O2 and 90% N2 for two hours (hypoxia). The time course was the same for the CA inhibitor experiments, but F1O2 was reduced to 0.09 during the hypoxia period to match the arterial and alveolar PO2 of the control dogs, which otherwise would have been higher on 10% O2 as a result of the known ventilatory stimulant effect of all CA inhibitors. See Höhne C., et al., J Appl Physiol 97:515-521 (2004), which is hereby incorporated by reference in its entirety. The hemodynamic measurements (arterial blood pressure, heart rate, central venous pressure, pulmonary artery pressure, pulmonary capillary wedge pressure), minute ventilation, renal function data, time points for blood samples for blood gases, actual bicarbonate, base excess, plasma electrolytes and hormones, measurements of plasma and urinary values were according to former studies. See Höhne C., et al., J Appl Physiol 90:1842-1848 (2001), which is hereby incorporated by reference in its entirety.
(§5) Values are given as means±SEM (n=6). For intra-group comparisons a general linear model of analysis of variance (GLM-ANOVA) for repeated measures was applied (NCSS97/PASS 2000, Saugus/MA, USA). Post-hoc testing of means was performed with Student's t-test. Level of significance for error of first order was adjusted according to Holm's procedure. Statistical significance was assumed at p<0.05.

Beagle dogs [2] = test: Dog study: plasma hormones, electrolytes and renal function; details: iv bolus + continuous infusion
Protocol: as §1, §2, §3, §4, §5

Beagle dogs [3] = test: Dog study: arterial blood gases, ventilation and acid-base status in normoxia and hypoxia; details: iv bolus + continuous infusion
Description: The dogs were kept under highly standardized conditions and received a standardized diet five days before the experiments. […] To permit spontaneous breathing through a low resistance circuit, a face mask was attached, which enclosed the dog's snout in a leak proof fashion. This custom made mask is equipped with a 2.5 cm ID connector to connect it to a ventilator set to CPAP mode (3 4 cmH20) (Servo900C; Siemens-Elema, Erlangen/Germany).
as §2
5) Ethoxzolamide (Sigma-Aldrich, Steinheim/Germany) intravenously: Bolus ethoxzolamide (1 mg/kg), followed by a continuous infusion of 1 mg·kg^−1·h^−1.
The hemodynamic measurements (arterial blood pressure, heart rate, central venous pressure, pulmonary artery pressure, pulmonary capillary wedge pressure), minute ventilation, renal function data, time points for blood samples for blood gases, actual bicarbonate, base excess, plasma electrolytes and hormones, measurements of plasma and urinary values were according to former studies.
as §5

[4] = iv bolus + continuous infusion, hypoxia 2nd h
[5] = iv bolus + continuous infusion, hypoxia 3rd h
[6] = iv bolus + continuous infusion, normoxia 1st h

`CCOc1ccc2nc(S(N)(=O)=O)sc2c1` [EZ, ethoxzolamide] was tested, and the “MPAP and PVR during hypoxia (words)” value (Beagle dogs [1]) was “increased; also recorded: did not prevent”, the “CO, cardiac output” value (Beagle dogs [1]; [4]) was 2.9 ± 0.2 L/min and the “CVP, central venous pressure” value (Beagle dogs [1]; [4]) was 2.5 ± 0.2 cmH2O. For the same compound, the “HR, heart rate” value (Beagle dogs [1]; [4]) was 104 ± 6 beats/min, the “MAP, mean arterial pressure” value (Beagle dogs [1]; [4]) was 104 ± 7 mmHg and the “MPAP, mean pulmonary arterial pressure” value (Beagle dogs [1]; [4]) was 17 ± 1 mmHg. For the same compound, the “PCWP, pulmonary capillary wedge pressure” value (Beagle dogs [1]; [4]) was 4.0 ± 0.5 cm H2O, the “SVR, systemic vascular resistance” value (Beagle dogs [1]; [4]) was 2745 ± 154 dyn · s^1 · cm^−5 and the “CO, cardiac output” value (Beagle dogs [1]; [5]) was 2.9 ± 0.3 L/min. The “CVP, central venous pressure” value (Beagle dogs [1]; [5]) was 2.5 ± 0.2 cmH2O, the “HR, heart rate” value (Beagle dogs [1]; [5]) was 106 ± 4 beats/min and the “MAP, mean arterial pressure” value (Beagle dogs [1]; [5]) was 101 ± 1 mmHg. The “MPAP, mean pulmonary arterial pressure” value (Beagle dogs [1]; [5]) was 16 ± 1 mmHg, the “PCWP, pulmonary capillary wedge pressure” value (Beagle dogs [1]; [5]) was 3.5 ± 0.3 cm H2O and the “SVR, systemic vascular resistance” value (Beagle dogs [1]; [5]) was 3270 ± 380 dyn · s^1 · cm^−5. The “CO, cardiac output” value (Beagle dogs [1]; [6]) was 2.8 ± 0.2 L/min, the “CVP, central venous pressure” value (Beagle dogs [1]; [6]) was 2.3 ± 0.2 cmH2O and the “HR, heart rate” value (Beagle dogs [1]; [6]) was 77 ± 4 beats/min. For the same compound, the “MAP, mean arterial pressure” value (Beagle dogs [1]; [6]) was 96 ± 2 mmHg, the “MPAP, mean pulmonary arterial pressure” value (Beagle dogs [1]; [6]) was 11 ± 1 mmHg and the “PCWP, pulmonary capillary wedge pressure” value (Beagle dogs [1]; [6]) was 3.8 ± 0.2 cm H2O. For the same compound, the “PVR, pulmonary vascular resistance” value (Beagle dogs [1]; [6]) was 221 ± 21 dyn · s^−1 · cm^−5, the “SVR, systemic vascular resistance” value (Beagle dogs [1]; [6]) was 2784 ± 200 dyn · s^1 · cm^−5 and the “plasma renin activity during hypoxia” value (Beagle dogs [2]) was “did not change”. For the same compound, the “GFR, glomerular filtration rate” value (Beagle dogs [2]; hypoxia 2nd h) was 3.1 ± 0.2 mL/min/kg, the “PK, plasma potassium concentration” value (Beagle dogs [2]; hypoxia 2nd h) was 2.8 ± 0.1 mM and the “UV, urine volume” value (Beagle dogs [2]; hypoxia 2nd h) was 0.072 ± 0.022 mL/min/kg. The “GFR, glomerular filtration rate” value (Beagle dogs [2]; hypoxia 3rd h) was 3.2 ± 0.2 mL/min/kg, the “PK, plasma potassium concentration” value (Beagle dogs [2]; hypoxia 3rd h) was 2.7 ± 0.1 mM and the “UV, urine volume” value (Beagle dogs [2]; hypoxia 3rd h) was 0.045 ± 0.006 mL/min/kg. For the same compound, the “GFR, glomerular filtration rate” value (Beagle dogs [2]; normoxia 1st h) was 3.2 ± 0.2 mL/min/kg, the “PK, plasma potassium concentration” value (Beagle dogs [2]; normoxia 1st h) was 3.1 ± 0.1 mM and the “UV, urine volume” value (Beagle dogs [2]; normoxia 1st h) was 0.052 ± 0.009 mL/min/kg. For the same compound, the “BEa, arterial base excess” value (Beagle dogs [3]; hypoxia 2nd h) was -6.2 ± 1.2 mM, the “HCO3a, arterial actual bicarbonate concentration” value (Beagle dogs [3]; hypoxia 2nd h) was 18.1 ± 1.3 mM and the “PaCO2, arterial carbon dioxide tension” value (Beagle dogs [3]; hypoxia 2nd h) was 26 ± 1 Torr. The “PaO2, arterial oxygen tension” value (Beagle dogs [3]; hypoxia 2nd h) was 36 ± 1 Torr, the “VE, minute ventilation” value (Beagle dogs [3]; hypoxia 2nd h) was 6.4 ± 0.7 L/min and the “pHa, arterial pH” value (Beagle dogs [3]; hypoxia 2nd h) was 7.41 ± 0.01. The “BEa, arterial base excess” value (Beagle dogs [3]; hypoxia 3rd h) was -6.7 ± 1.1 mM, the “HCO3a, arterial actual bicarbonate concentration” value (Beagle dogs [3]; hypoxia 3rd h) was 17.6 ± 1.3 mM and the “PaCO2, arterial carbon dioxide tension” value (Beagle dogs [3]; hypoxia 3rd h) was 24 ± 1 Torr. For the same compound, the “PaO2, arterial oxygen tension” value (Beagle dogs [3]; hypoxia 3rd h) was 38 ± 1 Torr, the “VE, minute ventilation” value (Beagle dogs [3]; hypoxia 3rd h) was 6.9 ± 0.9 L/min and the “pHa, arterial pH” value (Beagle dogs [3]; hypoxia 3rd h) was 7.42 ± 0.01. For the same compound, the “BEa, arterial base excess” value (Beagle dogs [3]; normoxia 1st h) was -5.3 ± 0.5 mM, the “HCO3a, arterial actual bicarbonate concentration” value (Beagle dogs [3]; normoxia 1st h) was 19.6 ± 0.6 mM and the “PaCO2, arterial carbon dioxide tension” value (Beagle dogs [3]; normoxia 1st h) was 33 ± 1 Torr. For the same compound, the “PaO2, arterial oxygen tension” value (Beagle dogs [3]; normoxia 1st h) was 105 ± 1 Torr, the “VE, minute ventilation” value (Beagle dogs [3]; normoxia 1st h) was 4.0 ± 0.2 L/min and the “pHa, arterial pH” value (Beagle dogs [3]; normoxia 1st h) was 7.37 ± 0.01.
For `NS(=O)(=O)c1nnc(NS(=O)(=O)c2ccccc2)s1` [BZ, benzolamide], the “MPAP and PVR during hypoxia (words)” value (Beagle dogs [1]; listed as Benzolamide) was “did not inhibit”, the “MPAP and PVR during hypoxia (words)” value (Beagle dogs [1]; listed as benzolamide) was “increased” and the “CO, cardiac output” value (Beagle dogs [1]; [4]) was 2.6 ± 0.2 L/min. The “CVP, central venous pressure” value (Beagle dogs [1]; [4]) was 1.5 ± 0.2 cmH2O, the “HR, heart rate” value (Beagle dogs [1]; [4]) was 94 ± 10 beats/min and the “MAP, mean arterial pressure” value (Beagle dogs [1]; [4]) was 109 ± 6 mmHg. For the same compound, the “MPAP, mean pulmonary arterial pressure” value (Beagle dogs [1]; [4]) was 18 ± 1 mmHg, the “PCWP, pulmonary capillary wedge pressure” value (Beagle dogs [1]; [4]) was 3.2 ± 0.4 cm H2O and the “SVR, systemic vascular resistance” value (Beagle dogs [1]; [4]) was 3272 ± 113 dyn · s^1 · cm^−5. The “CO, cardiac output” value (Beagle dogs [1]; [5]) was 2.7 ± 0.2 L/min, the “CVP, central venous pressure” value (Beagle dogs [1]; [5]) was 1.2 ± 0.2 cmH2O and the “HR, heart rate” value (Beagle dogs [1]; [5]) was 90 ± 8 beats/min. For the same compound, the “MAP, mean arterial pressure” value (Beagle dogs [1]; [5]) was 109 ± 9 mmHg, the “MPAP, mean pulmonary arterial pressure” value (Beagle dogs [1]; [5]) was 19 ± 1 mmHg and the “PCWP, pulmonary capillary wedge pressure” value (Beagle dogs [1]; [5]) was 3.8 ± 0.3 cm H2O. For the same compound, the “SVR, systemic vascular resistance” value (Beagle dogs [1]; [5]) was 3227 ± 83 dyn · s^1 · cm^−5, the “CO, cardiac output” value (Beagle dogs [1]; [6]) was 2.7 ± 0.2 L/min and the “CVP, central venous pressure” value (Beagle dogs [1]; [6]) was 1.8 ± 0.3 cmH2O. For the same compound, the “HR, heart rate” value (Beagle dogs [1]; [6]) was 73 ± 6 beats/min, the “MAP, mean arterial pressure” value (Beagle dogs [1]; [6]) was 102 ± 5 mmHg and the “MPAP, mean pulmonary arterial pressure” value (Beagle dogs [1]; [6]) was 12 ± 1 mmHg. The “PCWP, pulmonary capillary wedge pressure” value (Beagle dogs [1]; [6]) was 3.2 ± 0.2 cm H2O, the “SVR, systemic vascular resistance” value (Beagle dogs [1]; [6]) was 3101 ± 376 dyn · s^1 · cm^−5 and the “plasma renin activity during hypoxia” value (Beagle dogs [2]) was “did not change”. For the same compound, the “GFR, glomerular filtration rate” value (Beagle dogs [2]; hypoxia 2nd h) was 3.0 ± 0.2 mL/min/kg, the “PK, plasma potassium concentration” value (Beagle dogs [2]; hypoxia 2nd h) was 2.9 ± 0.1 mM and the “UV, urine volume” value (Beagle dogs [2]; hypoxia 2nd h) was 0.104 ± 0.023 mL/min/kg. The “GFR, glomerular filtration rate” value (Beagle dogs [2]; hypoxia 3rd h) was 3.2 ± 0.2 mL/min/kg, the “PK, plasma potassium concentration” value (Beagle dogs [2]; hypoxia 3rd h) was 2.8 ± 0.1 mM and the “UV, urine volume” value (Beagle dogs [2]; hypoxia 3rd h) was 0.065 ± 0.015 mL/min/kg. The “GFR, glomerular filtration rate” value (Beagle dogs [2]; normoxia 1st h) was 2.9 ± 0.2 mL/min/kg, the “PK, plasma potassium concentration” value (Beagle dogs [2]; normoxia 1st h) was 3.0 ± 0.1 mM and the “UV, urine volume” value (Beagle dogs [2]; normoxia 1st h) was 0.066 ± 0.007 mL/min/kg. The “BEa, arterial base excess” value (Beagle dogs [3]; hypoxia 2nd h) was -4.4 ± 0.4 mM, the “HCO3a, arterial actual bicarbonate concentration” value (Beagle dogs [3]; hypoxia 2nd h) was 18.4 ± 0.3 mM and the “PaCO2, arterial carbon dioxide tension” value (Beagle dogs [3]; hypoxia 2nd h) was 30 ± 1 Torr. The “PaO2, arterial oxygen tension” value (Beagle dogs [3]; hypoxia 2nd h) was 37 ± 1 Torr, the “VE, minute ventilation” value (Beagle dogs [3]; hypoxia 2nd h) was 4.4 ± 0.5 L/min and the “pHa, arterial pH” value (Beagle dogs [3]; hypoxia 2nd h) was 7.41 ± 0.01. For the same compound, the “BEa, arterial base excess” value (Beagle dogs [3]; hypoxia 3rd h) was -4.9 ± 0.4 mM, the “HCO3a, arterial actual bicarbonate concentration” value (Beagle dogs [3]; hypoxia 3rd h) was 17.7 ± 0.4 mM and the “PaCO2, arterial carbon dioxide tension” value (Beagle dogs [3]; hypoxia 3rd h) was 29 ± 1 Torr. For the same compound, the “PaO2, arterial oxygen tension” value (Beagle dogs [3]; hypoxia 3rd h) was 38 ± 1 Torr, the “VE, minute ventilation” value (Beagle dogs [3]; hypoxia 3rd h) was 5.1 ± 0.6 L/min and the “pHa, arterial pH” value (Beagle dogs [3]; hypoxia 3rd h) was 7.42 ± 0.01. For the same compound, the “BEa, arterial base excess” value (Beagle dogs [3]; normoxia 1st h) was -4.4 ± 0.4 mM, the “HCO3a, arterial actual bicarbonate concentration” value (Beagle dogs [3]; normoxia 1st h) was 20.1 ± 0.3 mM and the “PaCO2, arterial carbon dioxide tension” value (Beagle dogs [3]; normoxia 1st h) was 37 ± 1^ Torr. The “PaO2, arterial oxygen tension” value (Beagle dogs [3]; normoxia 1st h) was 96 ± 1^ Torr, the “VE, minute ventilation” value (Beagle dogs [3]; normoxia 1st h) was 3.0 ± 0.2 L/min and the “pHa, arterial pH” value (Beagle dogs [3]; normoxia 1st h) was 7.35 ± 0.01.
